Measurements taken from patent publication US9469645B2, “Compounds and compositions for the treatment of parasitic diseases” (Novartis AG, priority 2009, dated 2016).

Key:
3D7 P. falciparum strain = assay: parasite proliferation assay in infected red blood cells (SYBR Green I); assay type: cell-based, Plasmodium falciparum; conditions: Plasmodium falciparum, 3D7, Erythrocyte, 3D7 strain; read-out: EC50 3D7 strain
In short: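 P. falciparum 3D7 grown in O+ human erythrocytes to 3–8% parasitemia and exposed to compounds. Proliferation read as the increase in parasite DNA. Detection used SYBR Green I in saponin/triton-X/EDTA lysis buffer, with overnight lysis at room temperature.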

W2 strain = assay: parasite proliferation assay in infected red blood cells (SYBR Green I), W2 strain; assay type: cell-based; conditions: Erythrocyte
Source text: Compounds of the invention can be assayed to measure their capacity to inhibit proliferation of parasitemia in infected red blood cells. The proliferation is quantified by the addition of SYBR Green I (INVITROGEN)® dye which has a high affinity for double stranded DNA.

| Structure (SMILES) | EC50 (3D7 P. falciparum strain) | EC50 (W2 strain) | EC50 (W2 strain; Plasmodium falciparum) |
| --- | --- | --- | --- |
| N[C@H](Cc1ccccc1)C(=O)N1CCn2c(nc(-c3ccc(F)cc3)c2Nc2ccc(Cl)c(F)c2)C1 [Compound 311] | 90 nM | 72 nM | – |
| CCCC(=O)NCCCC[C@H](N)C(=O)N1CCn2c(nc(-c3ccc(F)cc3)c2Nc2ccc(C)cc2)C1 [Compound 158] | 7540 nM | 4760 nM | – |
| Cc1ccc(Nc2c(-c3ccc(F)cc3)nc3n2CC(=O)NC3(C)C)cc1F [Compound 598] | 40 nM | – | 74 nM |
| O=C(CN1CCCC(F)(F)C1)N1CCn2c(nc(-c3ccc(F)cc3)c2Nc2ccc(F)cc2)C1 [Compound 43] | 180 nM | 149 nM | – |
| N[C@@H](Cc1ccc(F)c(F)c1)C(=O)N1CCn2c(nc(-c3ccc(F)cc3)c2Nc2ccc(Cl)c(F)c2)C1 [Compound 319] | 40 nM | 27 nM | – |
| Cc1ccc(Nc2c(-c3ccc(F)cc3)nc3n2CCN(C(=O)N2CCC(N4CCCCC4)CC2)C3)cc1 [Compound 274] | 5140 nM | 5670 nM | – |
| CCCCC(=O)Nc1ccc(C[C@H](N)C(=O)N2CCn3c(nc(-c4cccc(F)c4)c3Nc3ccc(F)cc3)C2)cc1 [Compound 260] | 7640 nM | 5010 nM | – |
| Cc1ccc(Nc2c(-c3ccncc3)nc3n2CCN(C(=O)CN)C3)cc1 [Compound 382] | 1050 nM | 1040 nM | – |
| Cc1ccc(Nc2c(-c3ccc(F)cc3)nc3n2CCN(C(=O)Cc2cc(Cl)cc(Cl)c2)C3)cc1 [Compound 230] | 320 nM | 255 nM | – |
| Cc1ccc(Nc2c(-c3ccc(F)cc3)nc3n2CCN(C(=O)[C@@H](O)CC(C)C)C3)cc1 [Compound 134] | 10 nM | 7 nM | – |
| CC(C)(N)C(=O)N1CCn2c(nc(-c3ccc(F)cc3)c2Nc2ccc(C(F)(F)F)cc2)C1 [Compound 72] | 950 nM | 589 nM | – |
| Cc1ccc(Nc2c(-c3ccc(F)cc3)nc3n2CCN(C(=O)[C@H](N)c2ccccc2)C3)cc1 [Compound 97] | 40 nM | 21 nM | – |
| CC1(C)CN(C(=O)CN)Cc2nc(-c3cccc(F)c3)c(Nc3ccc(Cl)cc3)n21 [Compound 620] | 40 nM | – | 41 nM |
| N[C@@H](Cc1cscn1)C(=O)N1CCn2c(nc(-c3ccc(F)cc3)c2Nc2ccc(Cl)c(F)c2)C1 [Compound 315] | 20 nM | 8 nM | – |
| Cc1cc(C)cc([S+]([O-])c2c(-c3ccc(F)cc3)nc3n2CCN(C(=O)CN)C3(C)C)c1 (stereo not shown) [Compound 722] | 381 nM | – | 281 nM |
| Cc1ccc(Nc2c(-c3ccc(F)cc3)nc3n2CCN(C(=O)CN)C3(C)C)cc1C [Compound 654] | 5 nM | – | 6 nM |
| O=C(NCC(=O)N1CCn2c(nc(-c3ccc(F)cc3)c2Nc2ccc(F)cc2)C1)OCc1ccccc1 [Compound 49] | 2290 nM | 1900 nM | – |
| Cc1ccc(Nc2c(-c3ccc(F)cc3)nc3n2CCN(C(=O)[C@@H](N)c2ccccc2)C3)cc1 [Compound 98] | 10 nM | 8 nM | – |
| CCCNCC(=O)N1CCn2c(nc(-c3ccc(F)cc3)c2Nc2ccc(C)cc2)C1 [Compound 307] | 30 nM | 22 nM | – |
| O=C(c1ccc2ncccc2c1)N1CCn2c(nc(-c3ccc(F)cc3)c2Nc2ccc(Cl)c(F)c2)C1 [Compound 370] | 4350 nM | 8340 nM | – |
| Cc1ccc(Nc2c(-c3ccc(F)cc3)nc3ccc(C)cn23)cc1 [Compound 748] | 3440 nM | – | 4150 nM |
| Cc1c(Cc2ccccc2)nc2n1[C@H](CCc1ccccc1)C(=O)N[C@@H]2Cc1ccccc1 [Compound 289, (5R,8R)-2,8-dibenzyl-3-methyl-5-phenethyl-7,8-dihydroimidazo[1,2-a]pyrazin-6(5H)-one] | 3880 nM | 747 nM | – |

| Structure (SMILES) | EC50 (3D7 P. falciparum strain) | EC50 (W2 strain) | EC50 (W2 strain; Plasmodium falciparum) |
| --- | --- | --- | --- |
| Cc1ccc(Nc2c(-c3ccc(F)cc3)nc3n2CCN(C(=O)[C@H](CCC(=O)OCc2ccccc2)NC(=O)OC(C)(C)C)C3)cc1 [Compound 150] | 960 nM | 673 nM | – |
| Cc1ccc(Nc2c(-c3ccc(F)cc3)nc3n2CCN(C(=O)C[C@@H](O)c2ccccc2)C3)cc1 [Compound 135] | 50 nM | 33 nM | – |
| CC(C)(N)C(=O)N1CCn2c(nc(-c3ccc(F)cc3)c2Nc2ccc(C#N)cc2)C1 [Compound 263] | 350 nM | 653 nM | – |
| Cc1ccc(CC(=O)N2CCn3c(nc(-c4ccc(F)c(F)c4)c3Nc3ccc(C)cc3)C2)cc1 [Compound 390] | 30 nM | 28 nM | – |
| CC(C)(N)C(=O)N1CCn2c(nc(-c3ccc(F)cc3)c2Nc2ccc(Cl)c(F)c2)C1 [Compound 94] | 40 nM | 52 nM | – |
| CC(C)(N)C(=O)N1CCn2c(nc(-c3ccc(F)cc3)c2Nc2ccc(F)c(C(F)(F)F)c2)C1 [Compound 634] | 467 nM | – | 447 nM |
| CC(=O)NCCCC[C@H](N)C(=O)N1CCn2c(nc(-c3ccc(F)cc3)c2Nc2ccc(C)cc2)C1 [Compound 101] | 5090 nM | 4370 nM | – |
| N[C@H](C(=O)N1CCn2c(nc(-c3ccc(F)cc3)c2Nc2ccc(F)cc2)C1)C(F)(F)F [Compound 195] | 20 nM | 20 nM | – |
| Fc1cccc(-c2nc3cnccn3c2Nc2ccc(Cl)c(F)c2)c1 [Compound 207] | 9310 nM | 2420 nM | – |
| N[C@@H](Cc1ccc(F)cc1)C(=O)N1CCn2c(nc(-c3ccc(F)cc3)c2Nc2ccc(Cl)c(F)c2)C1 [Compound 316] | 20 nM | 14 nM | – |
| NC(C(=O)N1CCn2c(nc(-c3cccc(F)c3)c2Nc2ccc(Cl)c(F)c2)C1)C(F)(F)F (stereo not shown) [Compound 221] | 90 nM | 83 nM | – |
| Cc1ccc(Nc2c(-c3ccc(F)cc3)nc3n2CCN(C(=O)C(C)(C)N)C3)cc1F [Compound 631] | 49 nM | – | 62 nM |
| O=C(CN1CCS(=O)(=O)CC1)N1CCn2c(nc(-c3ccc(F)cc3)c2Nc2ccc(F)cc2)C1 [Compound 42] | 6100 nM | 4610 nM | – |
| Cc1ccc(Nc2c(-c3ccc(F)cc3)nc3n2CCN(C(=O)CNC2CC2)C3)cc1 [Compound 153] | 60 nM | 32 nM | – |
| Cc1ccc(Nc2c(-c3ccc(F)cc3)nc3n2CCN(Cc2ccc(OCCCN(C)C)cc2)C3)cc1 [Compound 183] | 1900 nM | 1340 nM | – |
| CCCCN[C@H](C(=O)N1CCn2c(nc(-c3ccc(F)cc3)c2Nc2ccc(C)cc2)C1)c1ccccc1 [Compound 295] | 210 nM | 283 nM | – |
| Cc1ccc(Nc2c(-c3ccc(F)cc3)nc3n2CCN(C(=O)CC(N)C(F)(F)F)C3)cc1 (stereo not shown) [Compound 190] | 940 nM | 1070 nM | – |
| CC(C)(N)C(=O)N1CCn2c(nc(-c3cccc(F)c3)c2Nc2ccc(F)cc2C(F)(F)F)C1 [Compound 375] | 1130 nM | 679 nM | – |
| CCCCCNc1ccc(C[C@H](N)C(=O)N2CCn3c(nc(-c4ccc(F)cc4)c3Nc3ccc(C)cc3)C2)cc1 [Compound 272] | 3590 nM | 3260 nM | – |
| CC[C@H](N)C(=O)N1CCn2c(nc(-c3ccc(F)cc3)c2Nc2ccc(C)cc2)C1 [Compound 85] | 20 nM | 31 nM | – |
| Cc1ccc(Nc2c(-c3ccc(F)cc3)nc3n2CCN(C(=O)C(N)C(F)(F)F)C3)cc1 (stereo not shown) [Compound 144] | 50 nM | 73 nM | – |
| NCC(=O)N1CCn2c(nc(-c3ccc(F)cc3)c2Nc2cccc(F)c2)C1 [Compound 36] | 50 nM | 34 nM | – |
